Results from patent publication US20220047687A1, “CHEMICAL SCALPEL” (FUNDACIÓN INSTITUTO DE INVESTIGACIÓN SANITARIA FUNDACIÓN …, priority 2019, published 2022).
Entries after “also recorded” stand apart in the source; their conditions may differ.

Assays:
[1] = tested on: abdominal organs and peritoneum; assay: Survival and necropsy of healthy rats after peritoneal washing (groups A, B)
Description: During this phase, a series of survival experiments were established with various work groups and subgroups to learn about the co-adjuvant or enhancing role of collagenase in the treatment of peritoneal tumors with chemotherapeutic agents such as mitomycin C:
Each group initially consisted of 6 rats (2×3). In the initial design, 3 animals were sacrificed after 15 days and the rest were left until the conditions of the animals required them to be sacrificed (subcutaneous tumor growth >0.5 cm in diameter) or a maximum of 2 months.

[2] = tested on: peritoneal carcinomatosis (DHD cells); assay: Survival and necropsy of rats with carcinomatosis after peritoneal washing (groups D, E, F); format: in vivo, rat; details: for Observations (necropsy): group E, Mito 5 mg; for outcome of group E: mitomycin 5 mg/animal, large amount of analgesia
Description: (§1) The procedure was performed 2 times in the TCQ group, the first time with collagenase and after 2 minutes peritoneal washing with mitomycin C at the different concentrations to be tested was repeated. […] Blood was also collected from all the animals before sacrificing them, the blood was processed within the hour following its extraction to obtain plasma and to analyze, on one hand, the existence of the mutated KRAS oncogene (mutation in codon 12 of exon 1 expressed by DHD cells), and on the other hand the existence of collagenase traces or residues in blood after the peritoneal washes. A digital PCR was used for the KRAS oncogene localization study. For the collagenase trace study, the anonymized samples were sent to Lyposmol laboratories for the performance of specific anti-MMP-1 and anti-MMP-2 ELISAS.
Each group initially consisted of 6 rats (2×3).

mutated KRAS oncogene = assay: Digital PCR of KRAS in plasma; format: in vivo, rat; details: for Mutated KRAS event no.: plasma
Description: as §1
To analyze the presence of mutated KRAS in the blood of the different groups by means of digital PCR, DNA was extracted from at least 2 ml of plasma/group by means of the QlAamp Circulating Nucleic Acid kit according to the manufacturer's data and the results were those listed in Table 4.

## CO[C@@]12[C@H](COC(N)=O)C3=C(C(=O)C(C)=C(N)C3=O)N1C[C@@H]1N[C@@H]12 [Mitomycin C, mitomycin C]
[1]; 5 mg of mitomycin
  necropsies of group B1: many irritated and bloody adhesions, and thin organ walls and vessels
[1]; group B, high dose 5 mg/animal
  clinical condition: always lethargic and exhibit very little activity
[1]; group B, high dose 5 mg/animal, despite continuous analgesia
  survival time: ≤ 2 weeks
[1]; group B-1, healthy rats, 5 mg, 1 week, 2 animals, listed as Mito
  Observations (necropsy): Significant weight loss. Viscera affected
[1]; group B-1, healthy rats, 5 mg, 1 week, 2 animals, listed as mitomycin
  Observations (necropsy): all the abdominal organs are in a relaxed and retracted state (with kidneys that appear necrotic and liver that appears collapsed), the omentum can be ruptured upon contact, and the large intestine obstructed
[1]; group B-1, healthy rats, 5 mg, 5 days, 1 animal
  Observations (necropsy): intestinal puncture
[1]; group B-2, healthy rats, 0.1 mg, 1 week, 1 animal
  Observations (necropsy): Organs with thinning and bloody walls; also recorded: Many adhesions
[1]; group B-2, healthy rats, 0.1 mg, 2 months, 2 animals, listed as Mito
  Observations (necropsy): Greenish liquid in abdomen, peritonitis; also recorded: high degree of adhesions
[1]; group B-2, healthy rats, 0.1 mg, 2 months, 2 animals, listed as mitomycin
  Observations (necropsy): the intestine and an omentum are hematic
[1]; group B-2, healthy rats, 0.1 mg, 24 h, 2 animals
  Observations (necropsy): Evisceration
[2]; 1 week, 1 animal
  Observations (necropsy): Endpoint criterion
[2]; 2 weeks, 2 animals
  Observations (necropsy): Endpoint criterion
[2]; 72 h, 3 animals
  Observations (necropsy): Endpoint criterion
[2]
  outcome of group E: all the animals had to be sacrificed due to endpoint criterion
[2]; listed as mitomycin
  outcome of group E: Half of the animals were found dead the first night after surgery
Mutated KRAS oncogene; group E (DHD + mitomycin C 5 mg/animal), only such group among the treatments
  mutated KRAS in the plasma, assessment: positive mutated KRAS in the plasma
Mutated KRAS oncogene; group B (healthy rats, mitomycin)
  Mutated KRAS event no.: 0
Mutated KRAS oncogene; group E (DHD + Mito 5 mg/animal)
  Mutated KRAS event no.: 524
